# Measurements published in article PMC4552634, “A New Set of Chemical Starting Points with Plasmodium falciparum Transmission-Blocking Potential for Antimalarial Drug Discovery” (PLoS ONE, 2015).
# Values joined by “and” are separate entries in the source; they are usually repeats but may differ in a detail not shown here. Equal entries are not always repeated. Where two headings read alike, the source gives them in different places.
# Legend:
# HepG2 cells = test: Cytotoxicity in HepG2 cells (intracellular ATP, ATPlite, 48 h); type: cell-based, human; conditions: HepG2 cells; IC50 per ratio column head; unit inferred
# [1] = tested on: P. falciparum asexual stages; conditions: asexual stages; TCAMS data; read-out: IC50 asexual; cited from earlier work
# [2] = tested on: P. falciparum stage V gametocytes; test: Gametocytocidal ATP bioluminescence assay (single point 5 μM and 1 μM, dose-response); type: cell-based, Plasmodium falciparum; conditions: for Ratio IC50 HepG2/IC50 P. falciparum: IC50 HepG2 divided by IC50 P. falciparum gametocytes
# Method: Purified stage IV-V gametocytes were obtained as previously described [10]. Single point ATP bioluminescence assay and dose–response of positive hits was determined in accordance with the previously published protocol [10].
# [3] = P. falciparum gametocytes, average, read-out: IC50 Pf Gametocytes average, IC50 (µM) average
# [4] = sexual stages (gametocytes), dose-response, read-out: IC50 sexual
Compound,IC50 (HepG2 cells),IC50 [1],Ratio IC50 HepG2/IC50 P. falciparum [2],"IC50 [2, 3]","IC50 [2, 4]"
CCc1c(CCNCCCCCCNCCc2ccc(OC)c(OC)c2C)ccc(OC)c1OC [TCMDC-132051],7.75 µM,1.57 µM,10,0.77 µM,–
C#CCOc1ccc2ccccc2c1CNCCCCCCNCc1c(OCC#C)ccc2ccccc12 [TCMDC-137838],3.19 µM,0.78 µM,6.38,0.5 µM,–
CCCCCCOc1ccc2ccccc2c1CNCCCCCCNCc1c(OCCCCCC)ccc2ccccc12 [TCMDC-137963],3.3 µM,1.06 µM,7,0.48 µM,–
CCn1c(-c2nonc2N)nc2c(-c3cccc(NC(=O)Nc4ccccc4OC)c3)ncc(OCCCN)c21 [TCMDC-136190],5.9 µM,1 µM,14,0.44 µM,0.435 µM
COc1ccc2ccc(OC)c(CNCCCCCCNCc3c(OC)ccc4ccc(OC)cc34)c2c1 [TCMDC-137796],3.4 µM,0.699 µM,12,0.29 µM,0.285 µM
Cc1ccc(C)c(NC(=O)CC2C(=O)N(c3ccccc3)C(=S)N2Cc2ccco2)c1 (centres unmarked) [TCMDC-124000],> 10 µM,0.57 µM,>7.7,1.3 µM,–
Cc1ccc2nc(C)cc(N/N=C/c3ccc([N+](=O)[O-])cc3)c2c1 [TCMDC-142070],0.19 µM,0.793 µM,0.0202,9.41 µM,–
Clc1ccc(OCCC2CCN(CCCCCCCN3CCC(CCOc4ccc(Cl)c(Cl)c4)CC3)CC2)cc1Cl [TCMDC-138967],4.4 µM and 2.6 µM,0.624 µM,6 and 5.59,0.7 µM and 0.47 µM,–
O=C(NCCc1ccccc1)N(Cc1cccc(-c2ccc(CNC3CCCC3)cc2)c1)C1CCN(Cc2ccccc2)CC1 [TCMDC-140618],7.42 µM,0.404 µM,5.66,1.31 µM,–
CCOc1ccccc1CCNC(C)Cc1ccc(C(=O)Nc2ccc(CC(C)NCCc3cccc(Cl)c3)cc2)cc1 (centres unmarked) [TCMDC-139805],3.5 µM,0.539 µM,5.71,0.61 µM,0.613 µM
CC(C)CNCc1cccc(-c2cccc(CN(CCCN3CCN(C)CC3)C(=O)CCC3CCCC3)c2)c1 [TCMDC-140554],4.55 µM,0.624 µM,7.58,0.6 µM,–
CCc1c(CCNCCCCCCNC(C)Cc2ccc3c(c2CC)OCO3)ccc(OC)c1OC (centres unmarked) [TCMDC-132052],3.1 µM,0.87 µM,10,0.33 µM,0.325 µM
Cc1nc(-c2cccc(Nc3ccnc4cc(-c5nccs5)ccc34)c2)no1 [TCMDC-138334],7.62 µM,0.322 µM,25,0.3 µM,–
CCCCCCCN1CC[C@@H](CCCc2ccnc3ccc(OCCC4CCNCC4)cc23)[C@@H](CC)C1 [TCMDC-139819],4.5 µM,0.61 µM,11,0.42 µM,0.415 µM
COc1c(OC)c(OC)c2ccccc2c1CNCCCCCCNCc1c(OC)c(OC)c(OC)c2ccccc12 [TCMDC-137827],3.2 µM,0.759 µM,2.79,1.15 µM,1.15 µM
CCc1c(CCNCCCC(C)CCNCCc2ccc(OC)c(OC)c2CC)ccc(OC)c1OC (centres unmarked) [TCMDC-132065],6 µM,1.11 µM,13,0.45 µM,0.453 µM
CN(C)CCN(C)Cc1cccc(-c2ccc3c(Nc4ccc(F)cc4Cl)ccnc3c2)c1 [TCMDC-138416],3.6 µM,0.11 µM,7.5,0.48 µM,–
CCCCCCCN1CC[C@@H](CCCc2ccnc3ccc(OCC4CCCNC4)cc23)[C@@H](CC)C1 (some centres unmarked) [TCMDC-139816],4.18 µM,0.625 µM,14,0.3 µM,–
COc1ccc(CCNCCCCCCNCCc2ccc(Cl)cc2)c(Cl)c1OC [TCMDC-131272],6.2 µM,0.825 µM,24,0.26 µM,0.257 µM
CCn1c(-c2nonc2N)nc2c(-c3cccc(NC(=O)Nc4cccc(Cl)c4)c3)ncc(OCCCN)c21 [TCMDC-136193],14.5 µM,0.941 µM,7,2.17 µM,2.17 µM
c1ccc2c(NCCCCCCCCNc3ccnc4ccccc34)ccnc2c1 [TCMDC-137751],3.74 µM,0.155 µM,3.46,1.08 µM,–
CN(C)CCN(Cc1ccccc1-c1ccc(CNCCc2ccccc2)cc1)C(=O)NC1CCCCC1 [TCMDC-140626],6.4 µM,0.906 µM,18,0.35 µM,–

Compound,IC50 (HepG2 cells),IC50 [1],Ratio IC50 HepG2/IC50 P. falciparum [2],"IC50 [2, 3]","IC50 [2, 4]"
FC(F)(F)COc1ccc(CCNCCCCNCCc2ccc(OCC(F)(F)F)c3ccccc23)c2ccccc12 [TCMDC-137282],3 µM,0.648 µM,112,0.0267 µM,0.027 µM
CN(C)CCNCc1ccc(-c2ccc3c(Nc4ccc(Oc5ccccc5)cc4)ccnc3c2)o1 [TCMDC-138399],7.57 µM,0.28 µM,23,0.33 µM,0.325 µM
CC(CCCCC(=O)Nc1ccc(CC(C)NCCc2cccc(Cl)c2)cc1)NCCc1cccc(Cl)c1 (centres unmarked) [TCMDC-139799],6.59 µM,1.01 µM,4,1.66 µM,1.66 µM
COc1cccc(CCc2c(CCNCCCCCCNCCc3ccccc3)ccc(OC)c2OC)c1 [TCMDC-132105],7.7 µM,0.721 µM,44,0.18 µM,0.177 µM
COc1ccc2ccccc2c1CNCCCCCCNCc1c(OC)ccc2ccccc12 [TCMDC-137915],3.59 µM,0.712 µM,14,0.25 µM,0.253 µM
CCCCCCCn1c(=N)n(CC(O)c2ccc(Cl)c(Cl)c2)c2ccccc21 (centres unmarked) [TCMDC-124065],6 µM,0.782 µM,3,2.02 µM,–
CC(C)NCc1ccc(OCc2cccc(COc3ccc(CNC(C)C)cc3I)c2)c(I)c1 [TCMDC-137259],4.9 µM,0.092 µM,23,0.21 µM,–
Nc1c2ccccc2nc2ccc(-c3ccccc3)cc12 [TCMDC-132030],3.3 µM,0.14 µM,7,0.49 µM,0.485 µM
FC(F)(F)COc1ccc2ccccc2c1CCNCCCCNCCc1c(OCC(F)(F)F)ccc2ccccc12 [TCMDC-137317],3.3 µM,0.426 µM,2.41,1.37 µM,–
C#CCCOc1ccc2ccccc2c1CNCCCCCCNCc1c(OCCC#C)ccc2ccccc12 [TCMDC-137832],5.5 µM,0.811 µM,14,0.41 µM,0.405 µM
Cc1cc(NCCc2ccccc2)nc(/N=C(\N)Nc2ccccc2Cl)n1 [TCMDC-138370],13.6 µM,0.789 µM,2.79,4.87 µM,–
Fc1ccc(N(c2nc(-c3cc(F)cc(C(F)(F)F)c3)cs2)C2CCNCC2)cc1 [TCMDC-136656],6.6 µM,0.956 µM,2,3.28 µM,3.27 µM
COc1cccc(OC)c1CN1CCC(N(C)CCCCCCCCCN2CCC(OC(=O)Nc3ccccc3-c3ccccc3)CC2)CC1 [TCMDC-134690],< 1.56 µM,0.319 µM,<6,0.26 µM,0.255 µM
CC(Cc1ccc(COc2ccc(CC(CO)NCCc3cccc(Cl)c3)cc2)cc1)NCCc1cccc(Cl)c1 (centres unmarked) [TCMDC-139844],3.5 µM,0.821 µM,2.53,1.39 µM,1.39 µM
COc1ccc2c(c1CCNCCCCNCCc1c(OC)ccc3c1CCCC3)CCCC2 [TCMDC-137324],0.75 µM,0.376 µM,5,0.15 µM,–
O=C(Nc1ccc(Cl)c(Cl)c1)Nc1ccccc1N1CCNCC1 [TCMDC-133727],11.2 µM,0.709 µM,1.51,7.42 µM,–
ON=C1CCc2cc(-c3cc(-c4ccc(OC5CCNCC5)cc4)oc3-c3ccncc3)ccc21 [TCMDC-141381],7.5 µM,0.157 µM,28,0.27 µM,–
CN1CCC(N(Cc2ccc(-c3ccc(Cl)cc3)cc2)C(=O)Cn2c(CCc3cccc(F)c3F)cc(=O)c3ccccc32)CC1 [TCMDC-141357],6.7 µM,0.865 µM,2,3.43 µM,3.43 µM
CCCCOc1cc(OC)c2ccccc2c1CCNCCCCNCCc1c(OCCCC)cc(OC)c2ccccc12 [TCMDC-137845],3 µM,1.05 µM,6,0.5 µM,–
CCCCCCN=C(N)c1ccc(OCCCCCOc2ccc(C(N)=NCCCCCC)cc2)cc1 [TCMDC-137619],5.39 µM,0.309 µM,17,0.31 µM,0.309 µM
COc1ccc(C[C@H]2NC[C@H](O)[C@H]2OC(C)=O)cc1 [TCMDC-125504],0.19 µM,0.138 µM,1.1,0.17 µM,0.173 µM
